Measurements reported in PMC4376459, “CXCR3 antagonist VUF10085 binds to an intrahelical site distinct from that of the broad spectrum antagonist TAK-779” (British Journal of Pharmacology, 2015).
Substitutions are numbered along the chain they refer to.

How the values were obtained:
[1] = system: six 'loss of charge' CXCR3 mutants; test: Chemotaxis assay, panel of charged extracellular residue mutants; format: cell-based, human; details: 30 nM CXCL11, 100 μM TAK-779, versus WT
Procedure: Assays of chemotactic responsiveness were carried out as previously described (Vaidehi et al., [2009]) using 96-well ChemoTx® plates with 5 μm pores (Neuroprobe, Gaithersburg, MD, USA). Migrating cells were detected by the use of CellTiter Glo® Dye (Promega, Southampton, UK) and resulting luminescence measured using a TopCount scintillation counter (PerkinElmer, Waltham, MA, USA). Basal migration of cells to buffer alone was subtracted from the resulting data, with individual results expressed as a percentage of the total cells applied to the filter. In all experiments, each data point was assayed in duplicate. In every experiment, cells transiently expressing WT CXCR3 were used as a positive control.
We have previously used an alternative panel of six ‘loss of charge’ CXCR3 mutants to determine the counterion for a negatively charged small molecule CXCR3 agonist (Nedjai et al., [2011]). Although these acidic residues lay outside our initially molecular modelling of the TAK-779:CXCR3 interaction, we tested the hypothesis that one or more of these acidic residues may contribute to TAK-779 binding. […]
Figure 6 Mutation of charged extracellular residues has no effect upon the ability of TAK-779 to inhibit chemotaxis in response to CXCL11. Migration of a panel of CXCR3 transfectants to 30 nM CXCL11 in the presence of 100 μM TAK-779 was determined.

[2] = molecular target: T1, CXCR3 H202A (ECL2) (Homo sapiens, UniProt P49682, H202A); test: Whole-cell 125I-CXCL11 binding assay, L1.2 transfectants; details: 0.1 nM 125I-CXCL11, read-out: IC50 ligand binding (mean ± SEM)
T1 construct: expressed in transfected cells; host or cells: murine pre-B cell line L1.2, transient transfection
T1 sequence (P49682 1-368 H202A): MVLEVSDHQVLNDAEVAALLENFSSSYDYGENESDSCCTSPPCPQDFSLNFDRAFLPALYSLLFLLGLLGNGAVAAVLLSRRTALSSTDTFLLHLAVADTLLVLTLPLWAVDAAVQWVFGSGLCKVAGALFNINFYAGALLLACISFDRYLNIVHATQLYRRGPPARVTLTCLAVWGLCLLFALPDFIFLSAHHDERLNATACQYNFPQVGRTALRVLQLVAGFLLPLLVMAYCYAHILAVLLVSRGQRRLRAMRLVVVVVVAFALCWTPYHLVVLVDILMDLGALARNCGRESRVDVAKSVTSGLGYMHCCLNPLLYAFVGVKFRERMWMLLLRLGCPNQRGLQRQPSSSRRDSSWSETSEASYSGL

[3] = molecular target: T2, CXCR3 Y60A (Homo sapiens, UniProt P49682, Y60A); test: as above
T2 construct: expressed in transfected cells; host or cells: murine pre-B cell line L1.2, transient transfection
T2 sequence (P49682 1-368 Y60A): T1 sequence (P49682 1-368 H202A) with Y60A, A202H

[4] = molecular target: T3, CXCR3 F131A (Homo sapiens, UniProt P49682, F131A); test: as above; details: 0.1 nM 125I-CXCL11, read-out: IC50 ligand binding (mean ± SEM)
T3 construct: expressed in transfected cells; host or cells: murine pre-B cell line L1.2, transient transfection
T3 sequence (P49682 1-368 F131A): T1 sequence (P49682 1-368 H202A) with F131A, A202H

[5] = molecular target: T4, CXCR3 I279A (Homo sapiens, UniProt P49682, I279A); test: as above; details: I279A, 0.1 nM 125I-CXCL11; read-out: IC50 ligand binding (mean ± SEM)
T4 construct: expressed in transfected cells; host or cells: murine pre-B cell line L1.2, transient transfection
T4 sequence (P49682 1-368 I279A): T1 sequence (P49682 1-368 H202A) with A202H, I279A

IC50 [2]: 25.3 ± 10.2 µM
reduction in IC50 value, ligand binding ([3]; Y60A relative to WT): twofold
IC50 ([3]; Y60A, 0.1 nM 125I-CXCL11, read-out: IC50 ligand binding (mean ± SEM)): 14 ± 7.07 µM
IC50 [4]: 23.3 ± 6.57 µM
IC50 [5]: 39.4 ± 15 µM
Compound: Cc1ccc(-c2ccc3c(c2)C=C(C(=O)Nc2ccc(C[N+](C)(C)C4CCOCC4)cc2)CCC3)cc1.[Cl-] [TAK-779, N,N-dimethyl-N-[4-[[[2-(4-methylphenyl)-6,7-dihydro-5H-benzocyclohepten-8-yl]-carbonyl]amino]benzyl] tetrahydro-2H-pyran-4-aminium chloride]
ability to inhibit migration to CXCL11 [1]: not reduced
